Measurements: patent US20260184692A1, “HETEROCYCLIC COMPOUNDS, PREPARATION METHODS AND USES THEREOF” (InventisBio Co., Ltd., priority 2022, published 2026)

Test system: OVCAR3 Cells
Assay: OVCAR3 Cell Viability Assay (CellTiter-Glo)
Format: cell-based
Settings: Homo sapiens, OVCAR-3, 144 h, 6 days incubation, read-out: OVCAR3 CTG IC50
Protocol: OVCAR3 Cells (ATCC, Cat #HTB-161) were seeded at a density of 2000 cells/well in a 96-well clear bottom plate (Greiner, Cat #655098) in 100 μL of complete media (RPMI1640+20% FBS+0.01 mg/mL human insulin). One hundred microliter of complete media was added into the blank well (column 1) for low control. Cells were allowed to adhere to the plate overnight in the incubator at 37° C., 5% CO2. On the following day, 0.5 μL of serially-diluted compounds were added to the cells (columns 2-10) and incubated for 6 days at 37 C, 5% CO2 (final 0.5% DMSO concentration); 0.5 μL of DMSO solution was added into the wells (column 11) for high control. Cell viability was detected according to the CellTiter-Glo Luminescent Cell Viability Assay Kit (Promega, Cat #G7573). Luminescence was recorded on the Tecan Spark plate reader. Inhibition rate (IR) of the tested compounds was determined by the following formula: IR (%)=(1−(RLUcompound−RLUlow control)/(RLUhigh control−RLUlow control))×100%. The IC50 value was calculated using the non-linear regression equation: Y=Bottom+(Top−Bottom)/(1+10^((Log IC50−X)×HillSlope)), where X is Log of compound concentration, Y is percent inhibition (IR (%)), Top and Bottom are plateaus in same units as Y.

IC50 [nM] | SMILES
< 200 | O=C(Nc1ccc2ncn(CC(F)(F)F)c2c1)c1ccc(NS(=O)(=O)CCO)cc1N1CCC2(CC1)CC2 [Compound 2]
< 200 | Cc1cc(NC(=O)c2ccc(NS(=O)(=O)CCO)cc2N2C[C@H]3CCC[C@H]3C2)nc(N2CCC(F)(F)CC2)n1 [Compound 8]
200 to 2000 | Cc1cc(NC(=O)c2ccc(NS(=O)(=O)CCO)cc2N2CC3CCC(C2)O3)nc(N2CCC(F)(F)CC2)n1 [Compound 10]
< 200 | O=C1c2ccc(NS(=O)(=O)CCO)cc2C2(CCC3(CC3)CC2)CN1c1cccc(CN2CC(F)(F)C2)n1 [Compound 18]
< 200 | O=C1c2ccc(NS(=O)(=O)CCO)cc2C2(CCC3(CC3)CC2)CN1c1cccc(CN2CCC(F)(F)C2)n1 [Compound 19]
200 to 2000 | Cn1cc(N2CC3(CCC4(CC4)CC3)c3cc(NS(=O)(=O)CCO)ccc3C2=O)nc1N1CCC(F)(F)CC1 [Compound 20]
200 to 2000 | O=C1c2ccc(NS(=O)(=O)CCO)cc2C2(CCC3(CC3)CC2)CN1c1cccc(OC2CC(F)(F)C2)n1 [Compound 24]
200 to 2000 | CC(c1cccc(N2CC3(CCC4(CC4)CC3)c3cc(NS(=O)(=O)CCO)ccc3C2=O)n1)N1CCC(F)(F)C1 (stereo not drawn) [Compound 30]
200 to 2000 | O=C1c2ccc(NS(=O)(=O)CCO)cc2C2(CCC3(CC3)CC2)CN1c1ccnc(N2CC(F)(F)C2)n1 [Compound 33]
200 to 2000 | Cc1cc(N2CC3(CCC4(CC4)CC3)c3cc(NS(=O)(=O)CCO)ccc3C2=O)nc(N2CCC(F)(F)CC2)n1 [Compound 35]
> 2000 | O=C1c2ccc(NS(=O)(=O)CCO)cc2C2(CCC3(CC3)CC2)CN1c1csc(N2CCC(F)(F)CC2)n1 [Compound 36]
200 to 2000 | CC1CCN(c2nc(N3CC4(CCC5(CC5)CC4)c4cc(NS(=O)(=O)CCO)ccc4C3=O)ccc2F)CC1 [Compound 37]
< 200 | CC1(F)CCN(c2nc(N3CC4(CCC5(CC5)CC4)c4cc(NS(=O)(=O)CCO)ccc4C3=O)ccc2F)CC1 [Compound 40]
200 to 2000 | O=C1c2cc(F)c(NS(=O)(=O)CCO)cc2C2(CCC3(CC3)CC2)CN1c1ccnc(N2CCC(F)(F)CC2)n1 [Compound 41]
< 200 | O=C1c2ccc(NS(=O)(=O)CCO)cc2C2(CCC3(CC3)CC2)CN1c1ccc(F)c(NC2CC(F)(F)C2)n1 [Compound 42]
200 to 2000 | CN1CCN(c2nc(N3CC4(CCC5(CC5)CC4)c4cc(NS(=O)(=O)CCO)ccc4C3=O)ccc2F)CC1 [Compound 46]
< 200 | O=C1c2ccc(NS(=O)(=O)CCO)cc2C2(CCC3(CC3)CC2)CN1c1ccc(F)c(N2CCCC(F)(F)CC2)n1 [Compound 47]
< 200 | O=C1c2ccc(NS(=O)(=O)CCO)cc2C2(CCC3(CC3)CC2)CN1c1cccc(NC2CC(F)(F)C2)n1 [Compound 48]
< 200 | CN(c1nc(N2CC3(CCC4(CC4)CC3)c3cc(NS(=O)(=O)CCO)ccc3C2=O)ccc1C#N)C1CC(F)(F)C1 [Compound 49]
200 to 2000 | CN(c1nccc(N2CC3(CCC4(CC4)CC3)c3cc(NS(=O)(=O)CCO)ccc3C2=O)n1)C1CCC(F)(F)C1 (stereo not drawn) [Compound 50]
< 200 | Cc1ccc(N2CC3(CCC4(CC4)CC3)c3cc(NS(=O)(=O)CCO)ccc3C2=O)nc1N1CCC(F)(F)CC1 [Compound 52]
< 200 | O=C1c2ccc(NS(=O)(=O)CCO)cc2C2(CCC3(CC3)CC2)CN1c1cncc(N2CCC(F)(F)CC2)n1 [Compound 54]
> 2000 | CC(c1nc(N2CC3(CCC4(CC4)CC3)c3cc(NS(=O)(=O)CCO)ccc3C2=O)ccc1C#N)N1CC(F)(F)C1 (stereo not drawn) [Compound 55]
> 2000 | N#Cc1ccc(N2CC3(CCC4(CC4)CC3)c3cc(NS(=O)(=O)CCO)ccc3C2=O)nc1CN1CC(F)(F)C1 [Compound 57]

IC50 [nM] | SMILES
200 to 2000 | O=C1c2ccc(NS(=O)(=O)CCO)cc2C2(CCC3(CC3)CC2)CN1c1cncc(NC2CC(F)(F)C2)n1 [Compound 58]
200 to 2000 | N#Cc1ccc(N2CC3(CCC4(CC4)CC3)c3cc(NS(=O)(=O)CCO)cnc3C2=O)nc1N1CCC(F)(F)CC1 [Compound 59]
200 to 2000 | O=C1c2ccc(NS(=O)(=O)CCO)cc2C2(CCC3(CC3)CC2)CN1c1ccc2ncn(CC(F)(F)F)c2n1 [Compound 60]
200 to 2000 | O=C1c2ccc(NS(=O)(=O)CCO)cc2C2(CCC3(CC3)CC2)CN1c1ccc(F)c(OC2CC(F)(F)C2)n1 [Compound 61]
< 200 | CC1CN(c2nc(N3CC4(CCC5(CC5)CC4)c4cc(NS(=O)(=O)CCO)ccc4C3=O)ccc2C#N)CCO1 (stereo not drawn) [Compound 63]
200 to 2000 | O=C1c2ncc(NS(=O)(=O)CCO)cc2C2(CCC3(CC3)CC2)CN1c1ccnc(N2CCC(F)(F)CC2)n1 [Compound 64]
200 to 2000 | O=C1c2cc(F)c(NS(=O)(=O)CCO)cc2C2(CCC3(CC3)CC2)CN1c1ccnc(NC2CC(F)(F)C2)n1 [Compound 65]
< 200 | O=C1c2ccc(NS(=O)(=O)CCO)cc2C2(CCC3(CC3)CC2)CN1c1ccnc(NC2CCCC2)n1 [Compound 66]
200 to 2000 | O=C1c2ccc(NS(=O)(=O)CCO)cc2C2(CCC(F)(F)CC2)CN1c1ccnc(N2CCC(F)(F)CC2)n1 [Compound 67]
> 2000 | O=C1c2ccc(NS(=O)(=O)CCO)nc2C2(CCC3(CC3)CC2)CN1c1ccnc(N2CCC(F)(F)CC2)n1 [Compound 68]
200 to 2000 | N#Cc1ccc(N2CC3(CCC4(CC4)CC3)c3nc(NS(=O)(=O)CCO)ccc3C2=O)nc1N1CCC(F)(F)CC1 [Compound 70]
< 200 | Cc1ncc(N2CC3(CCC4(CC4)CC3)c3cc(NS(=O)(=O)CCO)ccc3C2=O)nc1N1CCC(F)(F)CC1 [Compound 73]
< 200 | CC1(C)CCC2(CC1)CN(c1ccnc(NC3CC(F)(F)C3)n1)C(=O)c1ccc(NS(=O)(=O)CCO)cc12 [Compound 74]
200 to 2000 | O=C1c2ccc(NS(=O)(=O)CCO)cc2C2(CCC(=C(F)F)CC2)CN1c1ccnc(N2CCC(F)(F)CC2)n1 (stereo not drawn) [Compound 77]
< 200 | N#Cc1ccc(N2CC3(CCC(F)(F)CC3)c3cc(NS(=O)(=O)CCO)ccc3C2=O)nc1N1CCC(F)(F)CC1 [Compound 78]
200 to 2000 | O=C1c2ccc(NS(=O)(=O)CCO)cc2C2(CCC3(CC3)CC2)CN1c1ccnc(N2CC3CCC2C3)n1 (stereo not drawn) [Compound 82]
200 to 2000 | O=C1c2ccc(NS(=O)(=O)CCO)cc2C2(CCC3(CC3)CC2)CN1c1ccc(=O)n(CC2CC(F)(F)C2)n1 [Compound 83]
< 200 | O=C1c2ccc(NS(=O)(=O)CCO)cc2C2(CCC3(CC3)CC2)CN1c1ccnc(NCCC(F)(F)F)n1 [Compound 84]
< 200 | N#Cc1ccc(N2CC3(CCC4(CC4)CC3)c3cc(NS(=O)(=O)CCO)ccc3C2=O)nc1NCCC(F)(F)F [Compound 93]
200 to 2000 | CC1(CNc2nccc(N3CC4(CCC5(CC5)CC4)c4cc(NS(=O)(=O)CCO)ccc4C3=O)n2)COC1 [Compound 96]
200 to 2000 | O=C1c2ccc(NS(=O)(=O)CCO)cc2C2(CCC(F)(F)CC2)CN1c1ccnc(NC2CC(F)(F)C2)n1 [Compound 97]
< 200 | N#Cc1ccc(N2CC3(CCC4(CC4)CC3)c3cc(NS(=O)(=O)CCO)ccc3C2=O)nc1S(=O)(=O)C1CCCC1 [Compound 100]
200 to 2000 | CC1(F)CCC2(CC1)CN(c1ccnc(N3CCC(F)(F)CC3)n1)C(=O)c1ccc(NS(=O)(=O)CCO)cc12 (stereo not drawn) [Compound 103]
< 200 | N#Cc1ccc(N2CC3(CCC(F)(F)CC3)c3cc(NS(=O)(=O)CCO)ccc3C2=O)nc1NC1CC(F)(F)C1 [Compound 104]
